In patent publication EP1946777A1, “Substituted pyrazoline for preventing weight gain” (Laboratorios del Dr. Esteve S.A., priority 2007, dated 2008):
Where two headings read alike, the source gives them in different places.

Tests used:
rat CB1 receptors = target: T1, rat CB1 receptors (Rattus norvegicus, UniProt P20272); test: Affinity for rat CB1 receptors: competitive binding of [3H]-CP 55,940 to rat cerebellum membranes; conditions: 1 nM [3H]-CP 55,940, rat cerebellum membranes, 1 hour at 30°C
T1 construct: cerebella from male Wistar rats (250-300g) were carefully dissected on ice and homogenates were prepared; from tissue; host or cells: rat cerebellum (male Wistar) membrane homogenate
Procedure: Binding affinity to CB1 receptor was evaluated according to the method of Govaerts et al (2004) with the following modifications Briefly, cerebella from male Wistar rats (250-300g) were carefully dissected on ice and homogenates were prepared in cold 50 mM Tris-HCl, 5 mM MgCl2, 1 mM EDTA, 0.25 M sucrose, pH 7.4 with a Potter-Heljheim homogenizer and the suspension was centrifuged at 1,000 x g for 5 minutes. The supernatants were collected and centrifuged 50,000 x g for 15 min. The resulting pellets were resuspended in Tris-HCl buffer without sucrose, homogenized and incubated for 15 min at 37°C in an orbital shaker bath and centrifuged again at 50,000 x g for 15 min. Pellets were weighed, resuspended in Tris-HCl buffer without sucrose, homogenized with an Ultraturrax at 13,500 rpm for 3 x 5 seconds and aliquoted in 0.9 ml volumes in Eppendorf tubes. Aliquots were centrifuged at 20,800 x g for 5 minutes, supernatants discarded and pellets were frozen at -80°C until use. Total protein concentration was determined using a Bio-Rad commercial assay base on the Lowry method. […]
Binding data were analyzed by non-linear regression with the software GraphPad Prism Version 3.03.

[1] = Figure 5; cited from earlier work
[2] = Figure 4; cited from earlier work

T1 sequence (P20272 whole entry): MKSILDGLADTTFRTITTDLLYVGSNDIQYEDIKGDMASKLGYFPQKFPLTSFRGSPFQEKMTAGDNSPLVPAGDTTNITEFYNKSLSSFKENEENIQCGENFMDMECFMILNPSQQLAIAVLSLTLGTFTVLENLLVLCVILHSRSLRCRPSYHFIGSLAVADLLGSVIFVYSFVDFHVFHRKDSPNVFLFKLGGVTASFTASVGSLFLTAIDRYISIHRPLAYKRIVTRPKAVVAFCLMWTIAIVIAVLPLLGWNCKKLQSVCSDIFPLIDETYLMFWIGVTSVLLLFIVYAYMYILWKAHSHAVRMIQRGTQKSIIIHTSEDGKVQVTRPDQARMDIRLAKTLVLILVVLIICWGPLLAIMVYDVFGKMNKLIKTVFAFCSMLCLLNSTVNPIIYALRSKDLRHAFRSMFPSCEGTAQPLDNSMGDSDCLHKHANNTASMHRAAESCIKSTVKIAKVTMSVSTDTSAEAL

For O=C(NN1CCCCC1)C1=NN(c2ccc(Cl)cc2Cl)C(c2ccc(Cl)cc2)C1 (stereo not shown) [Subgroup A1, Chemical example 1], the IC50 (rat CB1 receptors; read-out: IC50) was 26 nM and the IC50 (rat CB1 receptors; read-out: pIC50 (converted)) was 22.4 nM.
For Cc1c(C(=O)NN2CCCCC2)nn(-c2ccc(Cl)cc2Cl)c1-c1ccc(Cl)cc1 [rimonabant], the “ability to prevent antipsychotic-induced weight-gain” value [1] is listed as “only partially effective”.
For CC(C)CC(N(C)C)C1(c2ccc(Cl)cc2)CCC1 (stereo not shown) [sibutramine], the “prevention of antipsychotic-induced weight-gain” value [2] is listed as “Partial prevention of antipsychotic-induced weight-gain”.
